Experimental data reported in ChEMBL document CHEMBL1201862, “PubChem BioAssay data set” (2004).
One block for each compound: values may come before it. Calls of active or inactive are those of the source.

Tests used:
[1] = cytotoxicity toward NIH3T3 fibroblasts, dose response, counter-screen, cell-based, ATP luminescence, mouse fibroblasts (AID 2010); format: functional;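 note: cells exposed to compound for about 90 hours before reading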
[2] = inhibitors of intracellular T. cruzi replication, confirmation, NIH3T3 host cells, beta-gal luminescence (AID 2044); format: functional, cell-based;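 note: intracellular parasites grown in NIH/3T3 mouse fibroblasts as host cells; luminescent beta-galactosidase reporter signal from transgenic T. cruzi replicating inside host cells; inhibitors lower the luminescence signal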
[3] = molecular target: Beta-2 adrenergic receptor (Homo sapiens, UniProt P07550); test: beta2AR agonists driving receptor internalization, dose response, cell-based, FAP fluorogen, flow cytometry, cherry pick 1 (AID 588763); format: functional
Chain of Beta-2 adrenergic receptor (P07550 whole entry): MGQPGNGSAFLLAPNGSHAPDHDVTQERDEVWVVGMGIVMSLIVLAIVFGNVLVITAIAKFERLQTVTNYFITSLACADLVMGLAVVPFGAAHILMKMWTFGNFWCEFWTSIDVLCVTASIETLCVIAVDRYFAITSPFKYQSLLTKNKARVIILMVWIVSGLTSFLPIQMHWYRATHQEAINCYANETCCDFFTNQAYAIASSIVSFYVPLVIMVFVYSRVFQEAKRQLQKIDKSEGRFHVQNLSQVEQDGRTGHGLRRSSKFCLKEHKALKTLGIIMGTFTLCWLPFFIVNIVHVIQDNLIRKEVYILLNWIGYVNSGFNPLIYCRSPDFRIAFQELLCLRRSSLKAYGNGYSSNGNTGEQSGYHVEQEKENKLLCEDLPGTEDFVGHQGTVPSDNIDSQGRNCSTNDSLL

[4] = molecular target: Ras and Rab interactor 1/Tyrosine-protein kinase ABL1 (Homo sapiens, UniProt P00519+Q13671); format: functional;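 note: biochemical TR-FRET dose-response test measuring inhibition of binding between Rin1 and Abl proteins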
Chain of Ras and Rab interactor 1/Tyrosine-protein kinase ABL1 (P00519 whole entry): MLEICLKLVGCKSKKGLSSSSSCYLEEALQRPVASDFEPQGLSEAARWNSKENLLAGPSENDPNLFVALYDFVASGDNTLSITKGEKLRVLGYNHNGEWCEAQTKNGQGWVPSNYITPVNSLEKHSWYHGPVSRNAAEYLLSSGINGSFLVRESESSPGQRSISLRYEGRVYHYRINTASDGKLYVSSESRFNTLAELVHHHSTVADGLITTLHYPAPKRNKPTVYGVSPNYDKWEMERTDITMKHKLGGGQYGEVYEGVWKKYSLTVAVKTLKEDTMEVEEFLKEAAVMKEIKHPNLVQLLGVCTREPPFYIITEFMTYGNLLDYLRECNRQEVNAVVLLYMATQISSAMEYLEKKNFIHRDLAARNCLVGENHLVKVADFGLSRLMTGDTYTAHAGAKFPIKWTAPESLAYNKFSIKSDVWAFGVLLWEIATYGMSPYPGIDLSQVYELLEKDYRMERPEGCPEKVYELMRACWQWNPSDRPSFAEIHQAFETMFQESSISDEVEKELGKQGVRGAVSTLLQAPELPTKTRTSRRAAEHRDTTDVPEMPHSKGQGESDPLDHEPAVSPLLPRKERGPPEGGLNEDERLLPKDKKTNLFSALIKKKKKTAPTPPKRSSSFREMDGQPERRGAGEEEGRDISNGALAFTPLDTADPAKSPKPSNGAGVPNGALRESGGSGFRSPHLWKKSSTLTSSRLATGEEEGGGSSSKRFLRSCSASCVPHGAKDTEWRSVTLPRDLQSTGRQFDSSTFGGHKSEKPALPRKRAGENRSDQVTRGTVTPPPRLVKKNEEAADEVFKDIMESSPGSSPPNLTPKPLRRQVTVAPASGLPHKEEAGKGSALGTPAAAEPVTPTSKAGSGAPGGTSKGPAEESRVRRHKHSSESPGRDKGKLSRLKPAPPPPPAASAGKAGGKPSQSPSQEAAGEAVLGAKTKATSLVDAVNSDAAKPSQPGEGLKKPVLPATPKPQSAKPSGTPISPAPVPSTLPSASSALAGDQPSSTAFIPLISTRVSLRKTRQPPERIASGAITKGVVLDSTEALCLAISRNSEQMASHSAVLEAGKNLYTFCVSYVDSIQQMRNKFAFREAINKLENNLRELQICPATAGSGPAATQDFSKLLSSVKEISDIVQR
Chain of Ras and Rab interactor 1/Tyrosine-protein kinase ABL1 (Q13671 whole entry): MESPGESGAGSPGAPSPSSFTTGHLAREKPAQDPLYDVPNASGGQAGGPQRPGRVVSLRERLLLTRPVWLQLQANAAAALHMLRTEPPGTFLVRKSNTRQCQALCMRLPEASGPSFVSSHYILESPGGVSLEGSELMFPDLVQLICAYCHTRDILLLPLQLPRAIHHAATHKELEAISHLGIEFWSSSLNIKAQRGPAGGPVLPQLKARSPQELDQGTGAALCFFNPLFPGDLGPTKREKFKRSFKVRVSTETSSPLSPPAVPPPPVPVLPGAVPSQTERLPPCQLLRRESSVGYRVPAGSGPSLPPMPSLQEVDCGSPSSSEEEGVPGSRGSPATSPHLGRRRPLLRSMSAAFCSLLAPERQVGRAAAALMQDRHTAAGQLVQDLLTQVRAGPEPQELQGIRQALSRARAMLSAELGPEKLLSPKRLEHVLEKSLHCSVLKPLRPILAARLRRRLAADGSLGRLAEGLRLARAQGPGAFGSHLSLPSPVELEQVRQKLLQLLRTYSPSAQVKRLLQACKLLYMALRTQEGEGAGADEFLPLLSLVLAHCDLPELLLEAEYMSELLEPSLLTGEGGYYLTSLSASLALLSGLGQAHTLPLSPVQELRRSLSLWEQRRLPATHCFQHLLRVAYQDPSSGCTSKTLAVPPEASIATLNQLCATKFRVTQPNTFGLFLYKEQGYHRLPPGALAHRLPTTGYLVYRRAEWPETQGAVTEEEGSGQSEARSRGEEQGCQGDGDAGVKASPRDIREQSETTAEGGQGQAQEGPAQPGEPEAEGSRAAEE

[5] = molecular target: T1, CAAX prenyl protease 2 (Homo sapiens, UniProt Q9Y256); test: human Rce1 protease inhibitors, dose response, biochemical, yeast membranes, quenched-peptide fluorescence, cherry-pick (AID 588849)
T1 sequence (Q9Y256 whole entry): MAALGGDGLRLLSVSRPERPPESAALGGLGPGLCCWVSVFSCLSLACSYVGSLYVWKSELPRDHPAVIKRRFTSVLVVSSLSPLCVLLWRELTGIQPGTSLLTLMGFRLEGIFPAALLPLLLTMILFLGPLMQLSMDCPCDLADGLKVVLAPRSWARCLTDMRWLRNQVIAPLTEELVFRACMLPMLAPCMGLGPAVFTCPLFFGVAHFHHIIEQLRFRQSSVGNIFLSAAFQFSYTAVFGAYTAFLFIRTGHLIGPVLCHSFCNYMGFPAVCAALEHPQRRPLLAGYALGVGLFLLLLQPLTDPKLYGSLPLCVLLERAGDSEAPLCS

[6] = molecular target: T2, CAAX prenyl protease 2 (Saccharomyces cerevisiae S288c, UniProt Q03530); format: biochemical
T2 sequence (Q03530 whole entry): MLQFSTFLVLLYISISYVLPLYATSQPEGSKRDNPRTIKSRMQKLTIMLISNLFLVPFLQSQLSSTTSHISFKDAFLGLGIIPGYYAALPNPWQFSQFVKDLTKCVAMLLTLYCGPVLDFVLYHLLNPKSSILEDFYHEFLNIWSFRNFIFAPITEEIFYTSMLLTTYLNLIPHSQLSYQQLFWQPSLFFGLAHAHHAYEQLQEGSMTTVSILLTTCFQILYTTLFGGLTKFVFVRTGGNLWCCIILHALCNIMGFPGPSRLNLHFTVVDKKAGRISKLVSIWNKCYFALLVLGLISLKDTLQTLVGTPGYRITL

[7] = molecular target: T3, SUMO-activating enzyme (Homo sapiens, UniProt Q9UBT2); test: SUMOylation inhibitor hit validation, confirmation, SUMOylation inhibitor project, biochemical, AlphaScreen (AID 2018); format: functional
T3 sequence (Q9UBE0 whole entry): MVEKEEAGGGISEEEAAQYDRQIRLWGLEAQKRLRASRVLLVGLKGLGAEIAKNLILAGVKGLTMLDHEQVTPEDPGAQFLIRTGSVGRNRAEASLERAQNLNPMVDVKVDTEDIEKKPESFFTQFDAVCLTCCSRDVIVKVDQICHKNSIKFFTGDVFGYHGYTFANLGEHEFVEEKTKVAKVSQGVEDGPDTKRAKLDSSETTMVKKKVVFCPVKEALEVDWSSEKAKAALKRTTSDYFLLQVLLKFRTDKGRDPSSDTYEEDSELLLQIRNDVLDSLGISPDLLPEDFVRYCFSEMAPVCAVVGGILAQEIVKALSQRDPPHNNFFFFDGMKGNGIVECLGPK
T3 sequence (Q9UBT2 whole entry): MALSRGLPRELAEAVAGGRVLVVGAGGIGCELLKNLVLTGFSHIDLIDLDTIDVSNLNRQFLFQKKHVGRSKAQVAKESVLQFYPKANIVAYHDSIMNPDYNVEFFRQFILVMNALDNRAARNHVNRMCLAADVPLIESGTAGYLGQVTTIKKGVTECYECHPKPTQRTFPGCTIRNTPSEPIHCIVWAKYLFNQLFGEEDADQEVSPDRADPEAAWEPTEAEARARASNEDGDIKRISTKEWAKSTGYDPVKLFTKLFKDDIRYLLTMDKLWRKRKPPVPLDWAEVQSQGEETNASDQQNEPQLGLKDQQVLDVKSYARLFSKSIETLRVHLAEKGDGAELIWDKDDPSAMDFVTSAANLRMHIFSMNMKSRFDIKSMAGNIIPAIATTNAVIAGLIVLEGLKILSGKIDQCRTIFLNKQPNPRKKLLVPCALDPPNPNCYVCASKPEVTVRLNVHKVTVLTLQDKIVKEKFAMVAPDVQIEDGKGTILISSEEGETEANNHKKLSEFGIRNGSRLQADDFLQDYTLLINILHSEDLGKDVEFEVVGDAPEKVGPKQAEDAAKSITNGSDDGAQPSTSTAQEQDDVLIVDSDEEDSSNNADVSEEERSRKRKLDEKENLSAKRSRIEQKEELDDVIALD

[8] = molecular target: Tyrosine-protein phosphatase non-receptor type 5 (Homo sapiens, UniProt P54829); test: STEP phosphatase inhibitors, confirmation, biochemical, fluorescence intensity, uHTS hits (AID 602372); format: functional; settings: read-out: IC50_Mean
Chain of Tyrosine-protein phosphatase non-receptor type 5 (P54829 whole entry, the tested form may be a part): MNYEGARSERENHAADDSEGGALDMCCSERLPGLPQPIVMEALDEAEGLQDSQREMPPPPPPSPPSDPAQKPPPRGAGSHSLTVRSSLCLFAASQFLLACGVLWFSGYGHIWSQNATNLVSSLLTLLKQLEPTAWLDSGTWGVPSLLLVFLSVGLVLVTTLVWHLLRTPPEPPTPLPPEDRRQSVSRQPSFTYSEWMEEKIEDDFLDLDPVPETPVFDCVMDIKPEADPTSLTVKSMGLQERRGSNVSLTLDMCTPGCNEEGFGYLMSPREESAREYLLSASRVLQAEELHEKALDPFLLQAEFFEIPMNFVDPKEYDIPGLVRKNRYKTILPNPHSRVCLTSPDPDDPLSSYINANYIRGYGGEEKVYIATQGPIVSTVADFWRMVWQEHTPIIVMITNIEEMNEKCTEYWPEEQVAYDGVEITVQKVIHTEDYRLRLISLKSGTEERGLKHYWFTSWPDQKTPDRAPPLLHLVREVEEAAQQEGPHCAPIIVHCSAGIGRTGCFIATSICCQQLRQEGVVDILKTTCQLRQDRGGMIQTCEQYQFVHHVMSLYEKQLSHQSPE

[9] = molecular target: T4, Carboxy-terminal domain RNA polymerase II polypeptide A small phosphatase 1 (Homo sapiens, UniProt Q9GZU7); test: inhibitors of CTDSP1, concentration-response testing, biochemical assay, absorbance-based, actives from ultra-high-throughput screening (AID 540297); format: functional
T4 sequence (Q9GZU7 whole entry): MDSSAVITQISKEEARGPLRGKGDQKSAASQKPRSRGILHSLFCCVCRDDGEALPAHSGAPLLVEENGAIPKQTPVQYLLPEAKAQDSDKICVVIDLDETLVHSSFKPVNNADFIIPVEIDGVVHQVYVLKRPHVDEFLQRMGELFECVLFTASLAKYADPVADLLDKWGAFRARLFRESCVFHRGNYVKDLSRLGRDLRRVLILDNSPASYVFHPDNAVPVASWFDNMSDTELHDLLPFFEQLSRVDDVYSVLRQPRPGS

[10] = molecular target: Eukaryotic translation initiation factor 4H (Homo sapiens, UniProt Q15056); test: human eIF4H binding inhibitors, primary screen, translation initiation inhibitor project, biochemical, uHTS, fluorescence polarization (AID 2012)
[11] = molecular target: Tyrosine-protein phosphatase non-receptor type 11 (Homo sapiens, UniProt Q06124); test: SHP2 phosphatase inhibition, dose response, selectivity assay for STEP inhibitor project, biochemical (AID 602367); format: functional; settings: read-out: IC50_Mean
[12] = molecular target: Dual specificity protein phosphatase 3 (Homo sapiens, UniProt P51452); test: VHR phosphatase inhibition, dose response, selectivity assay for STEP inhibitor project, biochemical (AID 602374); format: functional; settings: read-out: IC50_Mean
Chain of Dual specificity protein phosphatase 3 (P51452 whole entry): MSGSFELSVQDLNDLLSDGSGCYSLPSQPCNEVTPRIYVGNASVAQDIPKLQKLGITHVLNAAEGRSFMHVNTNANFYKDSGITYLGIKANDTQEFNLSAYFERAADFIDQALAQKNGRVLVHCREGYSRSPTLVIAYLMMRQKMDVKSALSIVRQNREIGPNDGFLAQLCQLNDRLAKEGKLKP

[13] = molecular target: T3, SUMO-activating enzyme; test: inhibitors of in vitro SUMOylation cascade, primary screen, biochemical, HTRF, uHTS (AID 2006); format: protein-complex assay
[14] = system: H9c2; test: cells; format: functional, cell-based; settings: Rattus norvegicus, H9c2, Myocardium;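 note: confirmatory concentration-response retest of ultra-high-throughput screening hits for modulation of myocardial damage; cell death induced by hydrogen peroxide oxidative stress; compound pretreatment for 60 min then peroxide exposure for 2 h; potency is for protecting the cells against peroxide damage rather than for killing them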
[15] = molecular target: Polyadenylate-binding protein 1 (Homo sapiens, UniProt P11940); test: PABP poly(A) RNA binding inhibitors, primary screen, biochemical, fluorescence polarization, uHTS (AID 2014)
[16] = system: HeLa; test: HeLa cell cytotoxicity, dose response, cytotoxicity control for MITF activator project, CellTiter-Glo luminescence, cherry-pick samples (AID 540259); format: functional, cell-based; settings: Homo sapiens
[17] = molecular target: Dual specificity protein kinase CLK1 (Homo sapiens, UniProt P49759); test: CLK1 kinase inhibitors, off-target check, dose response, selectivity assay for Dyrk1A inhibitor project, biochemical, cherry-picked samples (AID 588811)
Chain of Dual specificity protein kinase CLK1 (P49759 whole entry): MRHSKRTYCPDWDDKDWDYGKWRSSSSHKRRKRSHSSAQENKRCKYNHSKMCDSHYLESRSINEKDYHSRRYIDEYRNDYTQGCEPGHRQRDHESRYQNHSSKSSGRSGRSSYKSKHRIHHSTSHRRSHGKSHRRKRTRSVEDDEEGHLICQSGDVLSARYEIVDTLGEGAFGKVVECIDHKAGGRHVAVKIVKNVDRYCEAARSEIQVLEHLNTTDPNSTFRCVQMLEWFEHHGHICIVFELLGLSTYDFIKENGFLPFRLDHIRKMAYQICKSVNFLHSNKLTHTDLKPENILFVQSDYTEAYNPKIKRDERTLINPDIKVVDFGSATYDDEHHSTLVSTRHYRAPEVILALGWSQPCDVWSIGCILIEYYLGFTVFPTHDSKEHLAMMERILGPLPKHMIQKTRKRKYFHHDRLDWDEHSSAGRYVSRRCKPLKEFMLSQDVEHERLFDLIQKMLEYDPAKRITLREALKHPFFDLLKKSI

[18] = molecular target: Dual specificity tyrosine-phosphorylation-regulated kinase 1A (Rattus norvegicus, UniProt Q63470); format: biochemical, Homo sapiens

Structure (SMILES): C=CCn1c(SCc2ccccc2Cl)nnc1-c1sc2nc(C)cc(C)c2c1N
EC50 [1]: > 60 µM (not active) | EC50 [2]: 0.161 µM (active) | EC50 [3]: 0.0757 µM (active)

Structure (SMILES): COc1cc(/C=N/NC(=O)c2ccccc2O)ccc1OCC(=O)Nc1ccccc1
IC50 [7]: 16.4 µM (active) | IC50 [8]: 26.2 µM (inactive) | IC50 [9]: 5.46 µM (active) | IC50 [10]: 15.4 µM (active) | IC50 [11]: 1.25 µM (active) | IC50 [12]: 4.1 µM (active) | IC50 [13]: 8.71 µM (active) | IC50 [14]: > 79 µM (inactive) | IC50 [15]: > 100 µM (inactive)

Structure (SMILES): N#Cc1ccc(NC(=O)c2cccs2)nc1
AC50 [16]: 248 µM (active)

Now from value to compound:

EC50 [3]: 5.89 µM (active)
Structure (SMILES): O=C(c1cccc(Cl)c1)N1CCC(C(=O)N2CCN(Cc3ccccc3)CC2)CC1

IC50 [4]: 1.9 µM (active)
Structure (SMILES): CC(=O)Nc1ccc(NC(=O)C2CCN(C(=O)c3cccs3)CC2)cc1

AC50 [5]: 31.5 µM (active) | AC50 [6]: > 100 µM (inactive)
Structure (SMILES): CCOC(=O)c1c(NC(=O)c2cccc(N3C(=O)CCC3=O)c2)sc(C)c1C

AC50 [17]: 0.0311 µM (active)
Structure (SMILES): Cc1nc(CNc2ncnc3ccc(-c4ccoc4)cc23)cs1

AC50 [17]: 2.29 µM (active) | AC50 [18]: 8.71 µM (active)
Structure (SMILES): CCN1CCN(Cc2ccc(NC(=O)c3ccc(C)c(NC(=O)N4CCNC4=O)c3)cc2C(F)(F)F)CC1
